Laboratory results reported in patent publication US9873883B2, “Glyphosate resistant plants and associated methods” (Dow AgroSciences LLC, priority 2012, dated 2018).
Where “and” joins values, the source holds several entries; their conditions need not be identical. Equal values may be shown once.

Columns and labels:
[1] = test system: Non-transformed control Arabidopsis (cv. Columbia); experiment: Postemergence glyphosate tolerance, visual injury; format: in vivo, Arabidopsis thaliana; conditions: 840 g ae/ha, 2 weeks after application
[2] = molecular target: bacterial EPSP synthase DGT-29 (GENBANK YP_322772.1) variant DGT-29 v6 (G→A at residue 96), SEQ ID NO:11 (Trichormus variabilis, UniProt Q3MAV9, G96A); experiment: In vitro kinetic assay (inorganic phosphate production, malachite green); conditions: IC50 (glyphosate), values greater than 50 are estimates
Text: (§1) The novel DGT-14, DGT-12, DGT-18, DGT-29 and DGT-30 enzymes were obtained and the glycine to alanine mutation was introduced into the EPSP synthase enzymes at a location analogous to the G96A location described for the E. coli version of the EPSP synthase enzyme. The DGT-14 protein sequence was modified by introducing an alanine to replace the endogenous glycine of GENBANK ACC NO: ZP_01452683 at amino acid residue 101, thereby resulting in SEQ ID NO:1. The DGT-12 protein sequence was modified by introducing an alanine to replace the endogenous glycine of GENBANK ACC NO: ZP_01622155.1 at amino acid residue 111, thereby resulting in SEQ ID NO:7. The DGT-18 protein sequence was modified by introducing an alanine to replace the endogenous glycine of GENBANK ACC NO: NP_928909.1 at amino acid residue 96, thereby resulting in SEQ ID NO:9. The DGT-29 protein sequence was modified by introducing an alanine to replace the endogenous glycine of GENBANK ACC NO: YP_322772.1 at amino acid residue 96, thereby resulting in SEQ ID NO:11. The DGT-30 protein sequence was modified by introducing an alanine to replace the endogenous glycine of GENBANK ACC NO: ZP_02156189.1 at amino acid residue 96, thereby resulting in SEQ ID NO:13.
(§2) The synthesized genes were cloned into the pET28 expression vector.
(§3) Recombinant DGT proteins were overexpressed in Rosetta2™ (DE3) cells (Novagen, Madison, Wis.) from the constructs described above. A single colony was used to inoculate 50 mL starter cultures of LB containing chloramphenicol (25 μg/mL) and kanamycin (50 μg/mL) which were cultivated overnight at 37° C. The overnight cultures were used to inoculate 1 L of LB containing chloramphenicol (25 μg/mL) and kanamycin (50 μg/mL). The cultures were grown at 37° C. to an O.D.600=0.6 then placed in an ice water bath for 10 minutes. Expression of the target proteins was achieved by addition of IPTG to a final concentration of 500 μM. Induction was allowed to proceed overnight at 20° C. followed by harvesting via centrifugation at 8,000 rpm for 20 minutes. The cell pellets were stored at −80° C. until required for purification. All purification steps were carried out at 4° C.

[3] = molecular target: bacterial EPSP synthase DGT-30 (GENBANK ZP_02156189.1) variant DGT-30 v6 (G→A at residue 96), SEQ ID NO:13 (Shewanella benthica, UniProt A9CYU9, G96A); experiment: as above; conditions: IC50 (glyphosate)
Text: as §1, §2, §3

[4] = molecular target: bacterial EPSP synthase DGT-18 (GENBANK NP_928909.1) variant DGT-18 v6 (G→A at residue 96), SEQ ID NO:9 (Photorhabdus laumondii, UniProt Q7N6D5, G96A); experiment: as above; conditions: IC50 (glyphosate)
Text: as §1, §2, §3

dgt-14 rice plants = experiment: Glyphosate tolerance of dgt-14 rice; format: in vivo, Oryza sativa; conditions: sprayed
Text: Putatively transgenic rice plantlets at the 3-5 leaf stage are sprayed with a solution of glyphosate. Once sprayed, plantlets are allowed to dry for one hour before being moved out of the fume hood. Rating for sensitivity or resistance to glyphosate is completed from 10-14 days after treatment (DAT). Glyphosate resistant rice plantlets which contain a fully integrated copy of the dgt-14 plant are identified. Rice plants containing the dgt-14 transgene are obtained. The dgt-14 rice plants are sprayed with varying concentrations of glyphosate and shown to provide tolerance to glyphosate at concentrations up to 3360 g ae/ha.

[5] = test system: T4 Arabidopsis plants containing dgt-14 spiked into wildtype; experiment: dgt-14 as a selectable marker with glyphosate selection; format: in vivo, Arabidopsis thaliana; conditions: applied 7 and 11 DAP, scored 17 DAP
Description: The use of dgt-14 as a selectable marker for glyphosate selection agent is tested with the Arabidopsis transformed plants described above. Approximately 50 T4 generation Arabidopsis seed (homozygous for dgt-14) are spiked into approximately 5,000 wildtype (sensitive to glyphosate) seed. The seeds are germinated and plantlets are sprayed with a selecting dose of glyphosate. Several treatments of glyphosate are compared; each tray of plants receives either one or two application timings of glyphosate in one of the following treatment schemes: 7 DAP (days after planting), 11 DAP, or 7 followed by 11 DAP. Since all plants also contain a glufosinate resistance gene in the same transformation vector, dgt-14 containing plants selected with glyphosate can be directly compared to DSM-2 or pat containing control plants selected with glufosinate.
Glyphosate treatments are applied with a DeVilbiss spray tip as previously described. Transgenic plants containing dgt-14 are identified as “resistant” or “sensitive” 17 DAP. […] Sensitive and resistant plants are counted and the number of glyphosate tolerant plants is found to correlate with the original number of transgenic seed containing the dgt-14 transgene which are planted.

[6] = test system: Arabidopsis transformed with TraP12 v2::dgt-14 (pDAB105528); experiment: Postemergence glyphosate tolerance, visual injury; format: in vivo, Arabidopsis thaliana; conditions: 2 weeks after application

With `O=C(O)CNCP(=O)(O)O` [glyphosate, N-(phosphonomethyl)glycine] the “Visual % injury (Ave)” value ([1]; T2 study) was 100.0%, the “Visual % injury (Ave)” value ([1]; T3 study) was 100.0% and the IC50 ([2]; *determined at 100 μM PEP) was > 80 mM. For the same compound, the IC50 ([2]; at 1 mM PEP) was > 80 mM, the IC50 ([3]; at 60 μM PEP) was 7.86 mM and the IC50 ([3]; at 1 mM PEP) was 15.6 mM and 15.5 mM. For the same compound, the IC50 ([4]; at 60 μM PEP) was 9.24 mM, the IC50 ([4]; at 1 mM PEP) was 33.2 mM and the “tolerance to glyphosate at concentrations up to” value (dgt-14 rice plants) was “up to 3360 g ae/ha”. For the same compound, the “effective selection for transgenic plants” value [5] was 26.25-1680 g ae/ha, the “Visual % injury (Ave)” value ([6]; T2, 840 g ae/ha) was 2.5% and the “Visual % injury (Ave)” value ([6]; T3, 840 g ae/ha) was 0.0%.
